We go through one molecule from patent US20130303482A1, “Cylodextrin Complexation Methods for Formulating Peptide Proteasome Inhibitors” (ONYX THERAPEUTICS, INC., priority 2012, published 2013).

By solubility is commonly meant the concentration that dissolves in the medium under given conditions. Higher therefore signals a readily soluble substance.

Molecules are shown by their SMILES. ≈ marks a conversion by molar mass, not a printed value.

A short description of data set [1]: CDP (chlorohydrin degradation product) formation in lyophilized complexed carfilzomib vs pH, water and sodium chloride content, HPLC (Example 2). The format is physicochemical. Here is the method:
A multivariate statistical design of experiments was conducted to assess factors controlling the level of chlorohydrin degradation product as a function of processing parameters and storage time over six months. The complexation was performed in the proportion and parameters given in Example 1, with the following modifications: (i) the complexation process was performed at 2 L batch size; (ii) the final pH of solution before vial filling was varied for purposes of the experiment from 3.0, to 4.0; (iii) sodium chloride was spiked into SBECD in some experiments to create a high sodium chloride condition; (iv) water content of the lyophilized final product in stoppered vials was produced at high and low sodium chloride conditions via early termination and stoppering of vials to create a higher residual water content condition.
The solution of complexed carfilzomib for injection bulk solution pre-lyophilization included aqueous 5 mg/mL carfilzomib, 250 mg/mL Captisol® (SBECD) and 4.86 mg/mL citric acid, pH adjusted with aqueous sodium hydroxide. Compounding of the bulk solutions for lyophilization followed the procedure detailed in Example 1 with the following manipulations to create solutions with different specific attributes: • 1. pH was adjusted to 3.0 and 4.0 • 2. Sodium chloride was spiked into the Captisol® to create a “High Chloride” condition Captisol® manufactured by Cydex, a subsidiary of Ligand, has a standard product analysis range for sodium chloride from 0.05% to 0.2% (w/v). […] 400 g of this Captisol® was required per batch for the process to be performed at 2 L scale batches of complexation processing (in same proportions and general parameters per Example 1). To create the “high chloride” condition, 0.6 g of NaCl was added to 399.4 g of Captisol® which thus mimicked what a batch containing 0.2% chloride Captisol® would be comprised of.
In order to generate two (2) moisture content conditions in the final lyophilized vials, two (2) sets of 61.8 mg/vial (of CFZ-API) samples were lyophilized. The first cycle generated the “dry” sample set of vials containing approximately 0.6% residual water per Example 1 lyophilization parameters. For the second sample set, lyophilization was terminated and vials stoppered earlier in the secondary drying phase to generate the “wet” condition vials, with residual moisture approximately 2.4% water per vial initially.
The bulk solution of complexed carfilzomib was analyzed during manufacture by High Performance Liquid Chromatography (HPLC) to accurately quantify the concentration of dissolved and complexed carfilzomib drug substance. Subsequently, additional water was added to accurately dilute the bulk complexed solution. After this dilution step, HPLC was used again to ensure a target concentration of 5.0 mg/mL was achieved. Samples of the three (3) final bulk solutions were analyzed for potency and purity confirmation testing by HPLC. […] Karl Fischer Coulometry method was used for the water content determination in the lyophilized drug product.

Data set [2] in a line: physchem.
Data set [3] is described as follows: Slurry complexation / solubilization of CFZ-API in SBECD with citric acid (Example 1). The format is physicochemical. Here is the method: In a 525 L stainless steel jacketed cooled tank controlled to 2° C.-8° C., a suspension of 2.0 kg carfilzomib-API (CFZ-API), 246 kg water for injection (WFI), and 100 kg sulfobutylether beta-cyclodextrin (SBECD) was prepared. Specifically, in the 525 L stainless steel jacketed cooled tank controlled to 2° C.-8° C., 100 kg SBECD was dissolved in 246 kg WFI. The Carfilzomib suspension was then prepared using 2.0 kg of CFZ-API. Mixing was performed using an impeller mixer to maintain suspension of the CFZ-API solids and dissolve the SBECD. In the same vessel, a probe style rotor-stator high shear mixer (homogenizer) was used as well as the low shear impeller. The high shear mixer was operated for approximately 1 hour yielding an even suspension and reduction of particle size for any larger primary particles or agglomerated API. After a suspension was achieved, 1.96 kg of citric acid was added as a 16% aqueous solution. The pH of the solution was then lowered inducing partial solubilization of the CFZ-API followed by and complexation due to the presence of SBECD. Mixing was continued for a further 24 hours with both the impeller and the high shear mixer and a dissolved concentration of CFZ-API of greater than 5.1 mg/mL was achieved. The suspension containing greater than 5.1 mg/mL of dissolved complexed CFZ-API was filtered with a 0.45 micrometer clarifying filter, then accurately diluted to a dissolved concentration of 5.0 mg/mL and pH adjusted with 1 N sodium hydroxide solution to achieve pH 3.5. The solution was sterile filtered, with two sequential 0.22 micrometer sterilizing filters, then filled into vials 12.36 mL each, containing 61.8 mg per vial of CFZ-API. The vials were partially stoppered and loaded into a lyophilizer and freeze dried over 103 hours using a freezing temperature of −45° C., primary drying temperature of −15° C., and secondary drying of +30° C. The lyophilized vials were fully stoppered, and capped, then stored at the product stability temperature of 2° C.-8° C. for up to two years before use. […]

Data set [4] can be described thus: Solubility of carfilzomib as a function of SBECD concentration, pH 1.5 and 3.5, 5° C. and 25° C. (Example 4). The format is physicochemical. Conditions: SBECD solutions, citric acid 30 mM, pH 1.5 and 3.5, 5° C. vs 25° C., 24 hours. Here is the method: The experiments at acidic conditions below the target pH values and titrated to pH 1.5 or 3.5 using aqueous sodium hydroside solution. Measurements of solubilized concentration were those from samples analyzed after 24 hours of time to equilibrate.

`CC(C)C[C@H](NC(=O)[C@H](CCc1ccccc1)NC(=O)CN1CCOCC1)C(=O)N[C@@H](Cc1ccccc1)C(=O)N[C@@H](CC(C)C)C(=O)[C@@]1(C)CO1` [carfilzomib]: the “% Area of CDP after 6 months (HPLC data)” value in data set [1] (pH 3.00, water 0.7%, sodium chloride 0.05%, 5° C.) is reported as 0.00 % Area; in data set [1] (pH 3.00, water 0.7%, sodium chloride 0.05%, 25° C.), 0.14 % Area; in data set [1] (pH 3.00, water 0.7%, sodium chloride 0.2%, 5° C.) it was 0.13 % Area; in data set [1] (pH 3.00, water 0.7%, sodium chloride 0.2%, 25° C.), 0.70 % Area; in data set [1] (pH 3.00, water 2%, sodium chloride 0.05%, 5° C.), 0.02 % Area; in data set [1] (pH 3.00, water 2%, sodium chloride 0.05%, 25° C.) it was 0.55 % Area. For the same molecule, the “% Area of CDP after 6 months (HPLC data)” value came out at 0.28 % Area in data set [1] (pH 3.00, water 2%, sodium chloride 0.2%, 5° C.); 2.57 % Area in data set [1] (pH 3.00, water 2%, sodium chloride 0.2%, 25° C.); 0.00 % Area in data set [1] (pH 4.00, water 0.7%, sodium chloride 0.05%, 5° C.); 0.09 % Area in data set [1] (pH 4.00, water 0.7%, sodium chloride 0.05%, 25° C.); 0.08 % Area in data set [1] (pH 4.00, water 0.7%, sodium chloride 0.2%, 5° C.); 0.36 % Area in data set [1] (pH 4.00, water 0.7%, sodium chloride 0.2%, 25° C.). Also, the “% Area of CDP after 6 months (HPLC data)” value in data set [1] (pH 4.00, water 2%, sodium chloride 0.05%, 5° C.) is reported as 0.02 % Area; in data set [1] (pH 4.00, water 2%, sodium chloride 0.05%, 25° C.), 0.35 % Area; in data set [1] (pH 4.00, water 2%, sodium chloride 0.2%, 5° C.), 0.18 % Area; in data set [1] (pH 4.00, water 2%, sodium chloride 0.2%, 25° C.), 1.71 % Area. The solubility in data set [2] (pH 1, simulated gastric fluid) was 1800 µg/mL (≈ 2500 µM); in data set [2] (pH 3, aqueous buffer) it was 20 µg/mL (≈ 27.8 µM); in data set [2] (pH 5, aqueous buffer), 2 µg/mL (≈ 2.78 µM); in data set [2] (water) it was 2 µg/mL (≈ 2.78 µM). Further, the “extent of solubilization vs API particle size (FIG. 2)” value in data set [3] (24 hour complexation, mean API particle size 21.1 vs 7.5 micrometers) is recorded as “equivalent extent of solubilization”. Besides, in data set [3] (SBECD/WFI/citric acid slurry, 2° C.-8° C., 24 hours mixing), the “dissolved concentration of CFZ-API” value was “greater than 5.1 mg/mL”. For the same molecule, the “effect of higher SBECD concentration on solubility (FIG. 3)” value in data set [3] (process of Example 1) is given as “increased the solubility”. In addition, the “difference in solubility between low and high temperature (FIG. 6)” value in data set [4] is reported as “No significant differences in solubility”.
